Source: patent US5733719A, “Method of making an assay compound” (priority 1995, dated 1998)
One block for each compound: values may come before it.

How the values were obtained:
Lymphs = assay: Peptidases to distinguish leukemia from non-leukemia, lymphocytes; type: cell-based, human; design: unit not given here
From the text: (§1) Artificial intelligence was used to analyze data of cellular enzyme functions, and determine normal and disease states. Peptidases were used to distinguish leukemia from non-leukemia (output pattern). For input patterns lymphocyte and granulocyte cell types were used with aminopeptidases, cathepsins and dipeptidylpeptidase enzyme activities. In this Example, illustrated in Tables 6A-6C, three normals and three leukemia patients were used as known output patterns for the neural network to learn (in practice, the larger the learning set the more accurate unknown prediction will be). Unknowns were then presented to the learned algorithm as shown in the test case examples. Clinical diagnosis was confirmed by physicians. The trained neural network was able to correctly classify the leukemia from the non-leukemia.

Grans = assay: Peptidases to distinguish leukemia from non-leukemia, granulocytes; type: cell-based, human; design: unit not given here
From the text: as §1

SMILES: CC(C)[C@H](N)C(=O)N[C@@H](CO)C(=O)Nc1ccc2c(c1)Oc1cc(NC(=O)[C@H](CO)NC(=O)[C@@H](N)C(C)C)ccc1C21OC(=O)c2ccccc21 [VS, (H--L--Val--Ser)2 Rho 110-2TFA]
enzyme activity (Lymphs; J4 11/21/91 acute leuk.): 0.05 | enzyme activity (Lymphs; J4 12/2/91 AL): 0.03 | enzyme activity (Lymphs; J4 12/3/91 acute leuk.): 0.04 | enzyme activity (Lymphs; J5 11/27/91 AML): 0.05 | enzyme activity (Lymphs; J19 11/27/91 CLL): 0.01 | enzyme activity (Lymphs; J22 12/2/91 AML): 0.01 | enzyme activity (Lymphs; J22 12/9/91 AML): 0.04 | enzyme activity (Lymphs; N99° normal): 0.03 | enzyme activity (Lymphs; N191 normal): 0.14 | enzyme activity (Lymphs; N192 normal): 0.08 | enzyme activity (Lymphs; N193 normal): 0.09 | enzyme activity (Lymphs; N194 normal): 0.07 | enzyme activity (Lymphs; N195 normal): 0.06 | enzyme activity (Lymphs; N197 normal): 0.11 | enzyme activity (Lymphs; N200 normal): 0.06 | enzyme activity (Lymphs; N201 normal): 0.07 | enzyme activity (Lymphs; N202 normal): 0.04 | enzyme activity (Lymphs; N206 normal): 0.28 | enzyme activity (Lymphs; P68 tachycardia): 0.05 | enzyme activity (Lymphs; P69 pancreatic CA): 0.18 | enzyme activity (Lymphs; P70 cirrhosis/hemobilia): 0.04 | enzyme activity (Lymphs; P71 ac. pyelonephritis): 0.08 | enzyme activity (Grans; J4 11/21/91 acute leuk.): 0.37 | enzyme activity (Grans; J4 12/2/91 AL): 0.14 | enzyme activity (Grans; J4 12/3/91 acute leuk.): 0.23 | enzyme activity (Grans; J5 11/27/91 AML): 1.13 | enzyme activity (Grans; J19 11/27/91 CLL): 2.83 | enzyme activity (Grans; J22 12/2/91 AML): 0.22 | enzyme activity (Grans; J22 12/9/91 AML): 0.32 | enzyme activity (Grans; N99° normal): 0.14 | enzyme activity (Grans; N191 normal): 0.64 | enzyme activity (Grans; N192 normal): 0.40 | enzyme activity (Grans; N193 normal): 0.44 | enzyme activity (Grans; N194 normal): 0.29 | enzyme activity (Grans; N195 normal): 0.37 | enzyme activity (Grans; N197 normal): 0.58 | enzyme activity (Grans; N200 normal): 0.24 | enzyme activity (Grans; N201 normal): 0.32 | enzyme activity (Grans; N202 normal): 0.24 | enzyme activity (Grans; N206 normal): 1.03 | enzyme activity (Grans; P68 tachycardia): 0.33 | enzyme activity (Grans; P69 pancreatic CA): 0.57 | enzyme activity (Grans; P70 cirrhosis/hemobilia): 0.26 | enzyme activity (Grans; P71 ac. pyelonephritis): 0.69

SMILES: CC(C)C[C@H](N)C(=O)NCC(=O)Nc1ccc2c(c1)Oc1cc(NC(=O)CNC(=O)[C@@H](N)CC(C)C)ccc1C21OC(=O)c2ccccc21 [LG]
enzyme activity (Lymphs; J4 11/21/91 acute leuk.): 0.16 | enzyme activity (Lymphs; J4 12/2/91 AL): 0.18 | enzyme activity (Lymphs; J4 12/3/91 acute leuk.): 0.19 | enzyme activity (Lymphs; J5 11/27/91 AML): 0.23 | enzyme activity (Lymphs; J19 11/27/91 CLL): 0.02 | enzyme activity (Lymphs; J22 12/2/91 AML): 0.02 | enzyme activity (Lymphs; J22 12/9/91 AML): 0.61 | enzyme activity (Lymphs; N99° normal): 0.85 | enzyme activity (Lymphs; N191 normal): 2.42 | enzyme activity (Lymphs; N192 normal): 3.45 | enzyme activity (Lymphs; N193 normal): 1.56 | enzyme activity (Lymphs; N194 normal): 2.06 | enzyme activity (Lymphs; N195 normal): 1.93 | enzyme activity (Lymphs; N197 normal): 1.79 | enzyme activity (Lymphs; N200 normal): 1.55 | enzyme activity (Lymphs; N201 normal): 1.57 | enzyme activity (Lymphs; N202 normal): 1.28 | enzyme activity (Lymphs; N206 normal): 3.12 | enzyme activity (Lymphs; P68 tachycardia): 0.78 | enzyme activity (Lymphs; P69 pancreatic CA): 2.00 | enzyme activity (Lymphs; P70 cirrhosis/hemobilia): 0.79 | enzyme activity (Lymphs; P71 ac. pyelonephritis): 0.68 | enzyme activity (Grans; J4 11/21/91 acute leuk.): 0.85 | enzyme activity (Grans; J4 12/2/91 AL): 0.79 | enzyme activity (Grans; J4 12/3/91 acute leuk.): 1.06 | enzyme activity (Grans; J5 11/27/91 AML): 2.51 | enzyme activity (Grans; J19 11/27/91 CLL): 36.35 | enzyme activity (Grans; J22 12/2/91 AML): 1.56 | enzyme activity (Grans; J22 12/9/91 AML): 1.94 | enzyme activity (Grans; N99° normal): 2.022 | enzyme activity (Grans; N191 normal): 5.37 | enzyme activity (Grans; N192 normal): 6.78 | enzyme activity (Grans; N193 normal): 3.65 | enzyme activity (Grans; N194 normal): 3.52 | enzyme activity (Grans; N195 normal): 4.11 | enzyme activity (Grans; N197 normal): 4.41 | enzyme activity (Grans; N200 normal): 3.40 | enzyme activity (Grans; N201 normal): 3.14 | enzyme activity (Grans; N202 normal): 2.70 | enzyme activity (Grans; N206 normal): 6.01 | enzyme activity (Grans; P68 tachycardia): 2.52 | enzyme activity (Grans; P69 pancreatic CA): 3.53 | enzyme activity (Grans; P70 cirrhosis/hemobilia): 2.20 | enzyme activity (Grans; P71 ac. pyelonephritis): 4.00

SMILES: NCCCC[C@H](N)C(=O)Nc1ccc2c(c1)Oc1cc(NC(=O)[C@@H](N)CCCCN)ccc1C21OC(=O)c2ccccc21 [LYS, (H--L--Lys)2 Rho 110-4TFA]
enzyme activity (Lymphs; J4 11/21/91 acute leuk.): 0.77 | enzyme activity (Lymphs; J4 12/2/91 AL): 1.81 | enzyme activity (Lymphs; J4 12/3/91 acute leuk.): 1.64 | enzyme activity (Lymphs; J5 11/27/91 AML): 5.71 | enzyme activity (Lymphs; J19 11/27/91 CLL): 0.98 | enzyme activity (Lymphs; J22 12/2/91 AML): 0.74 | enzyme activity (Lymphs; J22 12/9/91 AML): 1.20 | enzyme activity (Lymphs; N99° normal): 0.33 | enzyme activity (Lymphs; N191 normal): 1.18 | enzyme activity (Lymphs; N192 normal): 0.56 | enzyme activity (Lymphs; N193 normal): 0.52 | enzyme activity (Lymphs; N194 normal): 0.93 | enzyme activity (Lymphs; N195 normal): 1.07 | enzyme activity (Lymphs; N197 normal): 0.70 | enzyme activity (Lymphs; N200 normal): 0.90 | enzyme activity (Lymphs; N201 normal): 1.05 | enzyme activity (Lymphs; N202 normal): 0.71 | enzyme activity (Lymphs; N206 normal): 1.65 | enzyme activity (Lymphs; P68 tachycardia): 1.51 | enzyme activity (Lymphs; P69 pancreatic CA): 1.22 | enzyme activity (Lymphs; P70 cirrhosis/hemobilia): 1.02 | enzyme activity (Lymphs; P71 ac. pyelonephritis): 0.91 | enzyme activity (Grans; J4 11/21/91 acute leuk.): 3.01 | enzyme activity (Grans; J4 12/2/91 AL): 4.09 | enzyme activity (Grans; J4 12/3/91 acute leuk.): 3.19 | enzyme activity (Grans; J5 11/27/91 AML): 14.86 | enzyme activity (Grans; J19 11/27/91 CLL): 4.41 | enzyme activity (Grans; J22 12/2/91 AML): 1.41 | enzyme activity (Grans; J22 12/9/91 AML): 1.90 | enzyme activity (Grans; N99° normal): 0.95 | enzyme activity (Grans; N191 normal): 1.20 | enzyme activity (Grans; N192 normal): 1.20 | enzyme activity (Grans; N193 normal): 1.43 | enzyme activity (Grans; N194 normal): 1.56 | enzyme activity (Grans; N195 normal): 2.53 | enzyme activity (Grans; N197 normal): 1.59 | enzyme activity (Grans; N200 normal): 1.46 | enzyme activity (Grans; N201 normal): 2.06 | enzyme activity (Grans; N202 normal): 13.22 | enzyme activity (Grans; N206 normal): 3.11 | enzyme activity (Grans; P68 tachycardia): 3.09 | enzyme activity (Grans; P69 pancreatic CA): 2.14 | enzyme activity (Grans; P70 cirrhosis/hemobilia): 2.33 | enzyme activity (Grans; P71 ac. pyelonephritis): 4.17

enzyme activity (Lymphs; J4 11/21/91 acute leuk.): 2.72 | enzyme activity (Lymphs; J4 12/2/91 AL): 3.80 | enzyme activity (Lymphs; J4 12/3/91 acute leuk.): 4.17 | enzyme activity (Lymphs; J5 11/27/91 AML): 3.40 | enzyme activity (Lymphs; J19 11/27/91 CLL): 1.73 | enzyme activity (Lymphs; J22 12/2/91 AML): 1.73 | enzyme activity (Lymphs; J22 12/9/91 AML): 3.01 | enzyme activity (Lymphs; N99° normal): 5.55 | enzyme activity (Lymphs; N191 normal): 4.14 | enzyme activity (Lymphs; N192 normal): 3.00 | enzyme activity (Lymphs; N193 normal): 3.00 | enzyme activity (Lymphs; N194 normal): 5.22 | enzyme activity (Lymphs; N195 normal): 5.24 | enzyme activity (Lymphs; N197 normal): 5.97 | enzyme activity (Lymphs; N200 normal): 5.38 | enzyme activity (Lymphs; N201 normal): 6.53 | enzyme activity (Lymphs; N202 normal): 6.61 | enzyme activity (Lymphs; N206 normal): 7.09 | enzyme activity (Lymphs; P68 tachycardia): 5.92 | enzyme activity (Lymphs; P69 pancreatic CA): 6.80 | enzyme activity (Lymphs; P70 cirrhosis/hemobilia): 6.68 | enzyme activity (Lymphs; P71 ac. pyelonephritis): 3.55 | enzyme activity (Grans; J4 11/21/91 acute leuk.): 10.75 | enzyme activity (Grans; J4 12/2/91 AL): 11.08 | enzyme activity (Grans; J4 12/3/91 acute leuk.): 1.28 | enzyme activity (Grans; J5 11/27/91 AML): 8.95 | enzyme activity (Grans; J19 11/27/91 CLL): 1.39 | enzyme activity (Grans; J22 12/2/91 AML): 13.98 | enzyme activity (Grans; J22 12/9/91 AML): 11.52 | enzyme activity (Grans; N99° normal): 13.41 | enzyme activity (Grans; N191 normal): 11.20 | enzyme activity (Grans; N192 normal): 11.22 | enzyme activity (Grans; N193 normal): 8.87 | enzyme activity (Grans; N194 normal): 12.49 | enzyme activity (Grans; N195 normal): 13.31 | enzyme activity (Grans; N197 normal): 15.85 | enzyme activity (Grans; N200 normal): 12.74 | enzyme activity (Grans; N201 normal): 15.92 | enzyme activity (Grans; N202 normal): 14.44 | enzyme activity (Grans; N206 normal): 17.96 | enzyme activity (Grans; P68 tachycardia): 16.08 | enzyme activity (Grans; P69 pancreatic CA): 16.21 | enzyme activity (Grans; P70 cirrhosis/hemobilia): 16.42 | enzyme activity (Grans; P71 ac. pyelonephritis): 11.07
SMILES: NCC(=O)N1CCC[C@H]1C(=O)Nc1ccc2c(c1)Oc1cc(NC(=O)[C@@H]3CCCN3C(=O)CN)ccc1C21OC(=O)c2ccccc21 [GP]
